Patent US20180235870A1, “TRANSDERMAL FORMULATIONS FOR DELIVERY OF BERBERINE COMPOUNDS, AND THEIR USE IN THE TREATMENT OF BERBERINE-RESPONSIVE DISEASES AND CONDITIONS” (DELIVRA INC., priority 2015, published 2018)

Tests used:
[1] = tested on: male Zucker fa/fa rat, a model of type 2 diabetes and metabolic disorder; experiment: Efficacy of transdermal berberine alone and in combination with pharmaceuticals in a model of metabolic syndrome (Example 19); assay type: in vivo, obese male Zucker fa/fa rats; details: Zucker fa/fa rats
Experimental: Fourteen obese male Zucker fa/fa rats at 5 weeks of age were housed for five weeks to the age of 10 weeks. During these five weeks, body weight measurements were taken once a week and once daily health observations were conducted for all animals. […] On Day 28, serum and whole liver was collected. […] Food and water intake measurements were taken once a week during the study period of Day 0 to Day 28. […] A sufficient amount of test article was supplied and formulated. Test article product was administered at a dose of 3.6 g/kg twice a day (e.g. […] Berberine cream was weighed fresh daily at each AM and PM dosing to avoid desiccation of the test article. Daily PO and TD dosing of the test articles took place between the hours of 08:00 to 10:00 and 16:00 to 18:00 for 7 days a week between Day 0 to 27. […] The exact time of dosing (up to the minute) was recorded for each animal on the daily dosing sheets. […] Remaining dosing solutions were stored at 4° C. between dosing periods. […] The animals shaved underwemt gaseous anaesthetic according to SOP ROD28.01 to ensure accuracy and avoid undue stress of the animal. The area was further shaven as needed over the course of the dosing period to ensure accurate drug application and absorption. At dosing, the animals were restrained and the transdermal test articles were applied in a uniform layer over the entire shaved area. […] PTS3028).

[2] = Plasma concentrations of berberine, berberine glucuronide, simvastatin and simvastatin hydroxy acid in rats (Example 20); assay type: in vivo; details: rats (n=2); oral 180 mg/kg/dose or transdermal 3.6 g/kg/dose
[3] = rats; cited from earlier work
[4] = humans; cited from earlier work
[5] = oral route, published; cited from earlier work
[6] = cited from earlier work
[7] = Solubility testing of berberine and dihydroberberine using various solvents; assay type: physicochemical
Experimental: Solubility was determined in a step-wise procedure that involved attempting to dissolve the berberine/DHB in the solvents at relatively high concentrations. […] Then the expected solvent was added to the berberine/DHB. The container was sonicated at RT or at 40C for 30 minutes. The following solvents were tested to dissolve the DHB. Dimethyl sulfoxide (Reagent Grade; […] Lot #STB[…]), and Glycerol tributyrate (Sigma T8626; Lot #BCBQ […]). […] The solubility was visually checked and state of solubility was recorded.

[8] = tested on: male Zucker rat, a model of type-2 diabetes and metabolic disorder; experiment: Effect of berberine, metformin and simvastatin on body mass, lipid biomarkers, food and water intake, clinical chemistry (Example 18); assay type: in vivo, obese male Zucker fa/fa rats; details: Zucker rats, Days 0 to 28
Experimental: All in vivo animal husbandry, treatment regiments, and sample collections were completed by InterVivo. The study was completed using obese male Zucker fa/fa rats (Charles River) at 10 weeks of age. […] Shaving was performed under anaesthesia one day prior to initiation of test article administration. The area was further shaven, as needed, over the course of the dosing period to ensure accurate drug application and absorption. For dosing procedures, animals were restrained and the transdermal test articles applied in a uniform layer over the entire shaved area. The shaved administration area was cleaned daily with paper towel before the subsequent transdermal dose was administered. Animals receiving test articles via oral gavage were restrained, and a ball-tipped gavage needle (18G) attached to a syringe containing the dosing solution was first inserted into the mouth, and then into the stomach. To determine the appropriate depth of insertion of the needle, the position corresponding to the last rib was measured prior to insertion. […] Group A), oral administration of berberine (180 mg/kg/dose; […] Group C), and oral administration of the vehicle (Group D) (Table 19). […] Group F), or with orally-administered metformin (200 mg/kg/dose; Group G). […] On Day 28, the animals were dosed in the morning only, prior to euthanasia and tissue collection. Animal body weights were performed once weekly from Day −34 to −2 and daily from Day −1 to 28. Rats were weighed, and the scales were operated and maintained, according to standard operating procedures. Food and water consumption measurements were taken over a 24 hour period, once weekly, from Days 0 to 28. Blood was collected via tail nick on Day-1 to determine unfasted blood glucose level for group allocation. Whole blood was collected via the saphenous vein or other appropriate route on Days 0, 7, 14, 21 and 28 immediately prior to test article administration. […] On Day 28, subjects were anaesthetized with isoflurane, and whole blood was collected via cardiac puncture 2.5 hours (+/−5 minutes) following treatment administration on this day. […]

[9] = averaged over the entire experiment
[10] = first four weeks of treatment, 0.5 g t.i.d.
[11] = Glycerol tributyrate, sonication 40 C.
[12] = Glycerol tributyrate, sonication RT
[13] = Isopropyl myristate, sonication 40 C.
[14] = Isopropyl myristate, sonication RT
[15] = Isosorbid-dimethyl ether 98%, sonication RT
[16] = Oleyl alcohol, sonication 40 C.

- berberine plasma concentration [2]: 0.44 ng/mL
- Dissolving Capability ([7]; Ethanol, sonication 40 C.): 40 mg/mL
- State of Solubility ([7]; Ethanol, sonication 40 C.): Suspension
- Dissolving Capability ([7]; Ethanol, sonication RT): 25 mg/mL
- State of Solubility ([7]; Ethanol, sonication RT): Suspension
- Dissolving Capability [7, 11]: 250 mg/mL
- State of Solubility [7, 11]: Suspension
- Dissolving Capability [7, 12]: 50 mg/mL
- State of Solubility [7, 12]: Suspension
- Dissolving Capability [7, 13]: 250 mg/mL
- State of Solubility [7, 13]: Suspension
- Dissolving Capability [7, 14]: 50 mg/mL
- State of Solubility [7, 14]: Suspension
- Dissolving Capability ([7]; Isosorbid-dimethyl ether 98%, sonication 40 C.): 250 mg/mL
- State of Solubility ([7]; Isosorbid-dimethyl ether 98%, sonication 40 C., at the concentration of the same line): Suspension
- Dissolving Capability [7, 15]: 50 mg/mL
- State of Solubility [7, 15]: Suspension
- Dissolving Capability [7, 16]: 250 mg/mL
- State of Solubility [7, 16]: Suspension
- Dissolving Capability ([7]; Oleyl alcohol, sonication RT): 50 mg/mL
- State of Solubility ([7]; Oleyl alcohol, sonication RT): Suspension
- Dissolving Capability ([7]; Water, sonication 40 C.): 50 mg/mL
- State of Solubility ([7]; Water, sonication 40 C.): Suspension
- Dissolving Capability ([7]; Water, sonication RT): 25 mg/mL
- State of Solubility ([7]; Water, sonication RT): Suspension
Compound: COc1ccc2cc3[n+](cc2c1OC)CCc1cc2c(cc1-3)OCO2 [berberine, Berberine]
- rate of weight gain (grams/day) ([1]; BID, Day 0 to 28, n=2): 3.3 grams/day
- overall triglyceride levels (mmol/L+/−SEM) ([1]; averaged for the entire experiment): 9.5 ± 1.0 mmol/L
- overall HbA1c level change (mmol/mmol+/−SEM) [1, 9]: 31.3+/−0.7 mmol/mmol
- overall average food intake (grams+/−SEM) [1, 9]: 30.8+/−1.5 grams
- overall cholesterol level change (mmol/L+/−SEM) [1, 9]: 5.0 ± 0.3 mmol/L
- overall average glucose change (%+/−SEM) ([1]; non-fasting glucose, averaged over the entire experiment): −24.0+/−0.6%
- bioavailability of orally administered berberine [3]: approximately 0.7%
- bioavailability [4]: below 1%
- Tmax [5]: ~15 min
- time to almost complete clearance after administration [5]: ≤ 30 min
- abdominal pain, percentage of patients [6, 10]: 3.4%
- constipation, percentage of patients [6, 10]: 6.9%
- diarrhea, percentage of patients [6, 10]: 10.3%
- flatulence, percentage of patients [6, 10]: 19.0%
- patients with adverse gastrointestinal side-effects ([6]; type 2 diabetes patients, 13 week berberine treatment): 34.5%
- cholesterol and triglyceride blood counts (in words) [8]: reduced cholesterol and triglyceride blood counts
- glucose levels (in words) ([8]; non-fasting): largest reduction in glucose levels
